According to US8299093B2, “Small molecule inhibitors of retroviral assembly and maturation” (New York Blood Center, Inc., priority 2008, dated 2012):
Read-outs that look alike come from different tables or passages of the source.

Legend:
HIV-1 = test: Inhibition of HIV-1 infectivity (p24 ELISA) in MT-2 cells, laboratory-adapted HIV-1 strains; format: cell-based; settings: Human immunodeficiency virus 1, MT2, 96 h, MT-2 cells, p24 ELISA day 4
Description: AZT was used as a positive control in the infectivity assays. In brief, 1×10^4 MT-2 cells (lymphocytes) were infected with HIV-1 at 100 TCID50 (50% tissue culture infective dose, 0.01 MOI [multiplicity of infection]) in 200 μL RPMI 1640 medium containing 10% FBS in the presence or absence of small molecules at graded concentrations overnight. The culture supernatants were then removed and fresh media containing freshly prepared test compounds were added. On the fourth day post-infection, 100 μL of culture supernatants were collected from each well, mixed with equal volume of 5% TRITON X-100® and tested for p24 antigen by ELISA®.

[1] = XTT cytotoxicity assay in MT-2 cells; format: cell-based; settings: human, cell type not given
Description: Briefly, for MT-2 cells, 100 μL of small molecule at graded concentrations was added to an equal volume of cells (5×10^4 cells/ml) in 96-well plates followed by incubation at 37° C. for 4 days, which ran parallel to the neutralization assay in MT-2 (except medium was added instead of virus). In the case of PBMC, 2.5×10^5 cells/mL were used and the cytotoxicity was measured after 7 days. After addition of XTT (PolySciences, Inc.), the soluble intracellular formazan was quantitated calorimetrically at 450 nm 4 hours later with a reference at 620 nm. The CC50 values were calculated.

[2] = read-out: IC50 (concentration that provides 50% inhibition of HIV-1 p24), Table 1, formula I
[3] = Table 1, formula I, read-out: CC50 (concentration that causes 50% cytotoxicity)
[4] = Table 2, formula II, read-out: CC50

Row | Structure (SMILES) | IC50 (HIV-1; [2]) [µM] | CC50 [1, 3] [µM] | IC50 (HIV-1; Table 2, formula II) [µM] | CC50 [1, 4] [µM]
1 | Cc1cccc2cc(CN(Cc3ccco3)C(=O)c3cccs3)c(O)nc12 [NYAD-S25] | > 10 | > 10 | – | –
2 | Cc1ccc2[nH]c(=O)c(CN(Cc3ccco3)C(=O)c3ccc(F)c(C)c3)cc2c1 [NYAD-S6-19] | < 10 | > 10 | – | –
3 | Cc1cc(C)c2[nH]c(=O)c(CN(Cc3ccco3)C(=O)c3ccc(Br)cc3)cc2c1 [NYAD-S82] | > 10 | > 10 | – | –
4 | CCC1CCCCN1CC(O)Cn1c2ccccc2n2c(=O)cc(C)c(C#N)c12 (stereo not drawn) [NYAD-S54] | – | – | > 10 | > 10
5 | Cc1cc(C)cc(NCC(O)Cn2c3ccccc3n3c(=O)cc(C)c(C#N)c23)c1 (stereo not drawn) [NYAD-S58] | – | – | > 10 | > 10
6 | Cc1cc(=O)n2c3ccccc3n(CC(O)CNc3ccc(Cl)cc3)c2c1C#N (stereo not drawn) [NYAD-S63] | – | – | > 10 | > 10
7 | Cc1cccc(C(=O)N(Cc2ccco2)Cc2cc3cc(C)ccc3[nH]c2=O)c1 [NYAD-S50] | > 10 | > 10 | – | –
8 | Cc1cc(=O)n2c3ccccc3n(CC(O)CCl)c2c1C#N (stereo not drawn) [NYAD-S62] | – | – | > 10 | > 10
9 | Cc1ccc2cc(CN(CC3CCCO3)C(=O)c3ccco3)c(=O)[nH]c2c1C (stereo not drawn) [NYAD-S47] | > 10 | > 10 | – | –
10 | Cc1cccc(C(=O)N(Cc2ccco2)Cc2cc3cccc(C)c3[nH]c2=O)c1 [NYAD-S26] | > 10 | > 10 | – | –
11 | CCc1ccc2[nH]c(=O)c(CN(Cc3cccs3)C(=O)c3ccco3)cc2c1 [NYAD-S102] | > 10 | > 10 | – | –
12 | Cc1cc(C)c2[nH]c(=O)c(CN(Cc3ccco3)C(=O)c3ccccc3)cc2c1 [NYAD-S80] | > 10 | > 10 | – | –
13 | Cc1ccc2[nH]c(=O)c(CN(Cc3ccco3)C(=O)c3cccs3)cc2c1 [NYAD-S44] | > 10 | > 10 | – | –
14 | Cc1cccc(C(=O)N(Cc2ccco2)Cc2cc3ccc(C)cc3[nH]c2=O)c1 [NYAD-S40] | > 10 | > 10 | – | –
15 | Cc1ccc2[nH]c(=O)c(CN(CC3CCCO3)C(=O)c3ccco3)cc2c1 (stereo not drawn) [NYAD-S42] | > 10 | > 10 | – | –
16 | Cc1cc(C)c2[nH]c(=O)c(CN(Cc3ccco3)C(=O)c3ccncc3)cc2c1 [NYAD-S107] | > 10 | > 10 | – | –
17 | Cc1ccc2[nH]c(=O)c(CN(Cc3cccnc3)C(=O)c3ccco3)cc2c1 [NYAD-S46] | > 10 | > 10 | – | –
18 | Cc1cc(=O)n2c3ccccc3n(CC(O)CN3CCN(CCO)CC3)c2c1C#N (stereo not drawn) [NYAD-S18] | – | – | > 10 | > 10
19 | CCOc1ccc(C(=O)N(Cc2ccco2)Cc2cc3ccc(C)cc3[nH]c2=O)cc1 [NYAD-S24] | > 10 | > 10 | – | –
20 | Cc1cc(=O)n2c3ccccc3n(CC(O)Cn3ccnc3)c2c1C#N (stereo not drawn) [NYAD-S15] | – | – | > 10 | > 10
21 | Cc1ccc2[nH]c(=O)c(CN(Cc3ccco3)C(=O)c3ccc(Cl)c(Cl)c3)cc2c1 [NYAD-S6-6] | < 10 | > 10 | – | –
22 | COc1ccc2[nH]c(=O)c(CN(Cc3ccco3)C(=O)c3ccccc3C)cc2c1 [NYAD-S61] | > 10 | > 10 | – | –
23 | Cc1cc(C)c2cc(CN(Cc3ccco3)C(=O)C3CCCCC3)c(=O)[nH]c2c1 [NYAD-S104] | > 10 | > 10 | – | –
24 | Cc1ccc(NCC(O)Cn2c3ccccc3n3c(=O)cc(C)c(C#N)c23)cc1Cl (stereo not drawn) [NYAD-S57] | – | – | > 10 | > 10
25 | Cc1cc(C)c2[nH]c(=O)c(CN(Cc3ccco3)C(=O)c3ccc(F)cc3)cc2c1 [NYAD-S103] | > 10 | > 10 | – | –
26 | Cc1ccc2cc(CN(Cc3ccco3)C(=O)c3ccccc3)c(=O)[nH]c2c1 [NYAD-S27] | > 10 | > 10 | – | –

Row | Structure (SMILES) | IC50 (HIV-1; [2]) [µM] | CC50 [1, 3] [µM] | IC50 (HIV-1; Table 2, formula II) [µM] | CC50 [1, 4] [µM]
27 | Cc1cc(=O)n2c3ccccc3n(CC(O)CN3CCCC3)c2c1C#N (stereo not drawn) [NYAD-S9] | – | – | > 10 | > 10
28 | Cc1ccc2[nH]c(=O)c(CN(Cc3ccco3)C(=O)c3ccccc3F)cc2c1 [NYAD-S49] | > 10 | > 10 | – | –
29 | Cc1ccc2[nH]c(=O)c(CN(Cc3ccco3)S(=O)(=O)c3ccc(Cl)cc3)cc2c1 [NYAD-S6-4] | < 10 | > 10 | – | –
30 | CCOc1ccc2[nH]c(=O)c(CN(Cc3ccc(F)cc3)C(=O)c3ccco3)cc2c1 [NYAD-S95] | > 10 | > 10 | – | –
31 | CCOc1ccc2[nH]c(=O)c(CN(Cc3ccco3)C(=O)c3cc(OC)c(OC)c(OC)c3)cc2c1 [NYAD-S109] | > 10 | > 10 | – | –
32 | Cc1ccc2cc(CN(Cc3ccco3)C(=O)c3ccc(F)cc3)c(=O)[nH]c2c1 [NYAD-S28] | > 10 | > 10 | – | –
33 | COc1ccc(CCNCC(O)Cn2c3ccccc3n3c(=O)cc(C)c(C#N)c23)cc1OC (stereo not drawn) [NYAD-S19] | – | – | > 10 | > 10
34 | COc1ccc2[nH]c(=O)c(CN(Cc3cccnc3)C(=S)Nc3ccc(F)cc3)cc2c1 [NYAD-S5] | > 10 | > 10 | – | –
35 | Cc1cc(=O)n2c3ccccc3n(CC(O)CNc3ccccc3)c2c1C#N (stereo not drawn) [NYAD-S10] | – | – | > 10 | > 10
36 | Cc1ccc2cc(CN(Cc3ccco3)C(=O)c3ccccc3F)c(=O)[nH]c2c1 [NYAD-S34] | > 10 | > 10 | – | –
37 | COc1ccc(NCC(O)Cn2c3ccccc3n3c(=O)cc(C)c(C#N)c23)cc1 (stereo not drawn) [NYAD-S53] | – | – | > 10 | > 10
38 | Cc1ccc(NCC(O)Cn2c3ccccc3n3c(=O)cc(C)c(C#N)c23)cc1C (stereo not drawn) [NYAD-S55] | – | – | > 10 | > 10
39 | COc1cccc(NCC(O)Cn2c3ccccc3n3c(=O)cc(C)c(C#N)c23)c1 (stereo not drawn) [NYAD-S65] | – | – | > 10 | > 10
40 | CCOc1ccc(NCC(O)Cn2c3ccccc3n3c(=O)cc(C)c(C#N)c23)cc1 (stereo not drawn) [NYAD-S56] | – | – | > 10 | > 10
41 | Cc1cccc2cc(CN(Cc3ccco3)C(=O)c3cccc(F)c3)c(=O)[nH]c12 [NYAD-S118] | < 10 | > 10 | – | –
42 | CCOc1ccc2[nH]c(=O)c(CN(Cc3ccco3)C(=O)c3cccc(F)c3)cc2c1 [NYAD-S97] | > 10 | < 10 | – | –
43 | Cc1ccc2[nH]c(=O)c(CN(Cc3ccco3)C(=O)c3ccc(F)c(Cl)c3)cc2c1 [NYAD-S6-10] | < 10 | > 10 | – | –
44 | Cc1ccccc1N1CCN(CC(O)Cn2c3ccccc3n3c(=O)cc(C)c(C#N)c23)CC1 (stereo not drawn) [NYAD-S14] | – | – | > 10 | > 10
45 | CCOc1ccc(C(=O)N(Cc2ccco2)Cc2cc3cc(OC)c(OC)cc3[nH]c2=O)cc1 [NYAD-S84] | > 10 | > 10 | – | –
46 | Cc1cc(C)c2cc(CN(Cc3ccco3)C(=O)c3ccccc3)c(=O)[nH]c2c1 [NYAD-S111] | > 10 | > 10 | – | –
47 | Cc1cc(C)c2[nH]c(=O)c(CN(CCO)C(=S)Nc3ccc(F)cc3)cc2c1 [NYAD-S4] | > 10 | > 10 | – | –
48 | Cc1cc(=O)n2c3ccccc3n(CC(O)CN3CCN(CCOc4ccc(Cl)cc4)CC3)c2c1C#N (stereo not drawn) [NYAD-S16] | – | – | < 10 | > 10
49 | COc1ccc2cc(CN(Cc3ccco3)C(=O)c3ccccc3)c(=O)[nH]c2c1 [NYAD-S105] | > 10 | > 10 | – | –
50 | Cc1ccccc1C(=O)N(Cc1ccco1)Cc1cc2cccc(C)c2[nH]c1=O [NYAD-S31] | > 10 | > 10 | – | –
51 | Cc1ccc2[nH]c(=O)c(CN(Cc3ccco3)C(=O)c3ccc(F)c(F)c3)cc2c1 [NYAD-S6-21] | < 10 | > 10 | – | –
